According to ChEMBL document CHEMBL4507302, “Data for DCP probe TP-020” (2021):
pKi: −log10 of the molar value. Activity calls are given as the source filed them. No cut-off for these calls is given here.

Legend:
Mogat2 (Mus musculus) = test: RapidFire/MS assay (mouse MGAT2)
[1] = target: Rho-associated protein kinase 1 (Homo sapiens) (UniProt Q13464); conditions: Compound concentration 1000.0 nM
[2] = target: Alpha-2A adrenergic receptor (Homo sapiens) (UniProt P08913); conditions: Compound concentration 10.0 uM
[3] = target: Atypical kinase COQ8B, mitochondrial (Homo sapiens) (UniProt Q96D53); conditions: Compound concentration 1000.0 nM
Atypical kinase COQ8B, mitochondrial (Homo sapiens), sequence (Q96D53 whole entry): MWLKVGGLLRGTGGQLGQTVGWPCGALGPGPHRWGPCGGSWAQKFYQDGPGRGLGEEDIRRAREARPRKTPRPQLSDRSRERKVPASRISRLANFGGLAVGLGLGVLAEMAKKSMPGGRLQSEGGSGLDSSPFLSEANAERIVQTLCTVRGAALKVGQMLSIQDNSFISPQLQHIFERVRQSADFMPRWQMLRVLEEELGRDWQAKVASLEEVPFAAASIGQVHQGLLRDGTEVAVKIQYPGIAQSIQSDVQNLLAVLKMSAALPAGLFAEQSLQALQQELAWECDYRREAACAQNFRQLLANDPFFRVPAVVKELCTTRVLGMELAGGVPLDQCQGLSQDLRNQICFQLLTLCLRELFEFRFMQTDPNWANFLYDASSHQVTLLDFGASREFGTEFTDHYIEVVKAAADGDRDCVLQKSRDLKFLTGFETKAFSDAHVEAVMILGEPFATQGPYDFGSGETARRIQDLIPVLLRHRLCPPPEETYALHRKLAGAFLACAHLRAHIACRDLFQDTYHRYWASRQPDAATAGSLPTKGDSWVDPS

[4] = target: Muscarinic acetylcholine receptor M3 (Homo sapiens) (UniProt P20309); conditions: Compound concentration 10.0 uM
[5] = target: 5-hydroxytryptamine receptor 6 (Homo sapiens) (UniProt P50406); conditions: Compound concentration 10.0 uM
[6] = target: Diacylglycerol O-acyltransferase 1 (Homo sapiens, UniProt O75907); test: Thin Layer Chromatography (TLC) assay (human DGAT1)
[7] = target: Serine/threonine-protein kinase 32A (Homo sapiens) (UniProt Q8WU08); conditions: Compound concentration 1000.0 nM
Serine/threonine-protein kinase 32A (Homo sapiens), sequence (Q8WU08 whole entry): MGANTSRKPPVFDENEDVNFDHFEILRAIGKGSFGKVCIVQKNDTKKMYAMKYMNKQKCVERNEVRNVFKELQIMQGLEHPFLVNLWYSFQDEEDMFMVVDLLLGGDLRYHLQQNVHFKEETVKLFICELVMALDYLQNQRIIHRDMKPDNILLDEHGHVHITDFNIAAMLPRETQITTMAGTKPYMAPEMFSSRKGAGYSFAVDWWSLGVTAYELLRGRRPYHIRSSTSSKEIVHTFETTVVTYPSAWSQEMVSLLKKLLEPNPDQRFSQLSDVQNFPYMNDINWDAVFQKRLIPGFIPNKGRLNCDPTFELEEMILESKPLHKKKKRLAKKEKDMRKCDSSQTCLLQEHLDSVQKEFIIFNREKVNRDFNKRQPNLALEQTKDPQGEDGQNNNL

[8] = target: Myosin light chain kinase, smooth muscle (Homo sapiens) (UniProt Q15746); conditions: Compound concentration 1000.0 nM
[9] = target: Calcium/calmodulin-dependent protein kinase type 1 (Homo sapiens) (UniProt Q14012); conditions: Compound concentration 1000.0 nM
Calcium/calmodulin-dependent protein kinase type 1 (Homo sapiens), sequence (Q14012 whole entry, looked up): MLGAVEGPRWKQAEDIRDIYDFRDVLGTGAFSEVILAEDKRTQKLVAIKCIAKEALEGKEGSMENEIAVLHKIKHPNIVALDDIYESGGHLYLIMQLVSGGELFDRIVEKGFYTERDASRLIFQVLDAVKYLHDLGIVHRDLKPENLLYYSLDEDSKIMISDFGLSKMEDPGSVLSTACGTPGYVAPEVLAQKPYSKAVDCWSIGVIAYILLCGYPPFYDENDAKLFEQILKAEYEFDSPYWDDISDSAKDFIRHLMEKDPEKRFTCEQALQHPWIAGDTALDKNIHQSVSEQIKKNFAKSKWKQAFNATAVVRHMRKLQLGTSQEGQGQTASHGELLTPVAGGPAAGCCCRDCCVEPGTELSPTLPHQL

[10] = target: Diacylglycerol O-acyltransferase 2-like protein MOGAT2 (Homo sapiens) (UniProt Q3SYC2); test: RapidFire/MS assay (human MGAT2)
[11] = target: Ephrin type-B receptor 1 (Homo sapiens) (UniProt P54762); conditions: Compound concentration 1000.0 nM
Ephrin type-B receptor 1 (Homo sapiens), sequence (P54762 whole entry): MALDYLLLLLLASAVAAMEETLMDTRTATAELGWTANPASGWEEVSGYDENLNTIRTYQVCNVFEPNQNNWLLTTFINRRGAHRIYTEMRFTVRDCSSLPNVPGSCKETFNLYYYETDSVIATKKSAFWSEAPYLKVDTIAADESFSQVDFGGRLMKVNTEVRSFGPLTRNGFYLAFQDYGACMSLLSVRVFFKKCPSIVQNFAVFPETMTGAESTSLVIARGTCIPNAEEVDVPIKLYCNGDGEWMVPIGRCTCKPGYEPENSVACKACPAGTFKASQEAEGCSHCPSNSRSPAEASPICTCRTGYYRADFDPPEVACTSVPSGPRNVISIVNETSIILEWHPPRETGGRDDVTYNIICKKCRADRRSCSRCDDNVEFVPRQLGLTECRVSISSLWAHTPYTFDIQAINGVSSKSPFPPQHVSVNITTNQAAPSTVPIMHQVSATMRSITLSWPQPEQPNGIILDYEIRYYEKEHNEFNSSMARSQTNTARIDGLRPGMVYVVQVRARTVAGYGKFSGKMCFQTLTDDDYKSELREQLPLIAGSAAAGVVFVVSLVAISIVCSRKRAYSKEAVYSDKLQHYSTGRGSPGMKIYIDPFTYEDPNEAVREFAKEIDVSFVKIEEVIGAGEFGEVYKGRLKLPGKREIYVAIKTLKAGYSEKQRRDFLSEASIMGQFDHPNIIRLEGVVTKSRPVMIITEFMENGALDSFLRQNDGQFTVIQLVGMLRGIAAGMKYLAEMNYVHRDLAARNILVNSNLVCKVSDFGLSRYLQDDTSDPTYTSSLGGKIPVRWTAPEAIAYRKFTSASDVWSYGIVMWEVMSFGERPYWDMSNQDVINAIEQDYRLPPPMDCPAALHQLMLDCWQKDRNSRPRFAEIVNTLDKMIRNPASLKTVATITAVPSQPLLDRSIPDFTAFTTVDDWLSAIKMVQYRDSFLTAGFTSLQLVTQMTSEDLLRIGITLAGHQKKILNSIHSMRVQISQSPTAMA

[12] = target: 5-hydroxytryptamine receptor 2C (Homo sapiens) (UniProt P28335); conditions: Compound concentration 10.0 uM
[13] = target: Alpha-2C adrenergic receptor (Homo sapiens) (UniProt P18825); conditions: Compound concentration 10.0 uM
[14] = target: Diacylglycerol O-acyltransferase 2 (Homo sapiens, UniProt Q96PD7); test: Thin Layer Chromatography (TLC) assay (human DGAT2)
[15] = target: Mitogen-activated protein kinase 9 (Homo sapiens) (UniProt P45984); conditions: Compound concentration 1000.0 nM
Mitogen-activated protein kinase 9 (Homo sapiens), sequence (P45984 whole entry, looked up): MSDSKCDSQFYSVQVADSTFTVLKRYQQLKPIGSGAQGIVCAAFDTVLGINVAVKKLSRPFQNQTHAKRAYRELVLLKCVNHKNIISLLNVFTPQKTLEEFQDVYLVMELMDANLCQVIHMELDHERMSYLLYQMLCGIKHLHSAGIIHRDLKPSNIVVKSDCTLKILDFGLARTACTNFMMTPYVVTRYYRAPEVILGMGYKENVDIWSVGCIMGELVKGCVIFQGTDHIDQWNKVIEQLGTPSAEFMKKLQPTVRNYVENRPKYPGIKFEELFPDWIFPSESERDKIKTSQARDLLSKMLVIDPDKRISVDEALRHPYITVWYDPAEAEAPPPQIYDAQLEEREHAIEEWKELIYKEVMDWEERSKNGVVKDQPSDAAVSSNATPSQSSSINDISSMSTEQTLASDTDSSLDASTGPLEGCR

[16] = target: 5-hydroxytryptamine receptor 1D (Homo sapiens, UniProt P28221); test: GPCRScan assay: inhibition of 5-HT1D; set-up: radioligand conc. used [nm] 1.0 – 2.0, parental cells HEKT
5-hydroxytryptamine receptor 1D, sequence (P28221 whole entry): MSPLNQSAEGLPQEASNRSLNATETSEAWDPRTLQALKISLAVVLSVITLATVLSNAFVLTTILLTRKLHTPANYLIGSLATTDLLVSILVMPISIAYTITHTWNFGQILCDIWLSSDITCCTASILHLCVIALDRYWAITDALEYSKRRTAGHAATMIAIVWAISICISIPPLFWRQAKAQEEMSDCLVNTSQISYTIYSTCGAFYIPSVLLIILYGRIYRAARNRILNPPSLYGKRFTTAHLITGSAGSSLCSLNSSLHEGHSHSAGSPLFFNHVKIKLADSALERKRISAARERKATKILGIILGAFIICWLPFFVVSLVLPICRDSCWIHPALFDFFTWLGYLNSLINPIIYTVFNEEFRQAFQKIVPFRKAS

[17] = target: Sigma intracellular receptor 2 (Homo sapiens, UniProt Q5BJF2); test: GPCRScan assay: inhibition of Sigma 2; set-up: radioligand conc. used [nm] 5.0, parental cells HEKT
[18] = target: Sigma non-opioid intracellular receptor 1 (Homo sapiens) (UniProt Q99720); conditions: Compound concentration 10.0 uM
[19] = target: Alpha-1A adrenergic receptor (Homo sapiens) (UniProt P35348); conditions: Compound concentration 10.0 uM
[20] = target: Beta-1 adrenergic receptor (Homo sapiens) (UniProt P08588); conditions: Compound concentration 10.0 uM
[21] = target: Muscarinic acetylcholine receptor M1 (Homo sapiens) (UniProt P11229); conditions: Compound concentration 10.0 uM
[22] = target: Beta-3 adrenergic receptor (Homo sapiens) (UniProt P13945); conditions: Compound concentration 10.0 uM
Beta-3 adrenergic receptor (Homo sapiens), sequence (P13945 whole entry, looked up): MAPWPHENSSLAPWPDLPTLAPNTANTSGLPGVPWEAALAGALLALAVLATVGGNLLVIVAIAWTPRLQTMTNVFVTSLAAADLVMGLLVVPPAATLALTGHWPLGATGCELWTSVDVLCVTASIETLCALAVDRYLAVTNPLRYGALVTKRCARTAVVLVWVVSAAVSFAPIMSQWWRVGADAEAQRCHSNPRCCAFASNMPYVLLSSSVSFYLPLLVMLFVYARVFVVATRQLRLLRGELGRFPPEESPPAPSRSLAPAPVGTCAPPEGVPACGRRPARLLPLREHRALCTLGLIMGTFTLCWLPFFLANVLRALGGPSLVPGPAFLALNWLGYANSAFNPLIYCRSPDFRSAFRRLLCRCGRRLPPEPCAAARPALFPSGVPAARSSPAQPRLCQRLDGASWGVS

[23] = target: 5-hydroxytryptamine receptor 1A (Homo sapiens) (UniProt P08908); conditions: Compound concentration 10.0 uM
[24] = target: Muscarinic acetylcholine receptor M2 (Homo sapiens) (UniProt P08172); conditions: Compound concentration 10.0 uM

Rho-associated protein kinase 1 (Homo sapiens), sequence (Q13464 2-1354 limits assumed): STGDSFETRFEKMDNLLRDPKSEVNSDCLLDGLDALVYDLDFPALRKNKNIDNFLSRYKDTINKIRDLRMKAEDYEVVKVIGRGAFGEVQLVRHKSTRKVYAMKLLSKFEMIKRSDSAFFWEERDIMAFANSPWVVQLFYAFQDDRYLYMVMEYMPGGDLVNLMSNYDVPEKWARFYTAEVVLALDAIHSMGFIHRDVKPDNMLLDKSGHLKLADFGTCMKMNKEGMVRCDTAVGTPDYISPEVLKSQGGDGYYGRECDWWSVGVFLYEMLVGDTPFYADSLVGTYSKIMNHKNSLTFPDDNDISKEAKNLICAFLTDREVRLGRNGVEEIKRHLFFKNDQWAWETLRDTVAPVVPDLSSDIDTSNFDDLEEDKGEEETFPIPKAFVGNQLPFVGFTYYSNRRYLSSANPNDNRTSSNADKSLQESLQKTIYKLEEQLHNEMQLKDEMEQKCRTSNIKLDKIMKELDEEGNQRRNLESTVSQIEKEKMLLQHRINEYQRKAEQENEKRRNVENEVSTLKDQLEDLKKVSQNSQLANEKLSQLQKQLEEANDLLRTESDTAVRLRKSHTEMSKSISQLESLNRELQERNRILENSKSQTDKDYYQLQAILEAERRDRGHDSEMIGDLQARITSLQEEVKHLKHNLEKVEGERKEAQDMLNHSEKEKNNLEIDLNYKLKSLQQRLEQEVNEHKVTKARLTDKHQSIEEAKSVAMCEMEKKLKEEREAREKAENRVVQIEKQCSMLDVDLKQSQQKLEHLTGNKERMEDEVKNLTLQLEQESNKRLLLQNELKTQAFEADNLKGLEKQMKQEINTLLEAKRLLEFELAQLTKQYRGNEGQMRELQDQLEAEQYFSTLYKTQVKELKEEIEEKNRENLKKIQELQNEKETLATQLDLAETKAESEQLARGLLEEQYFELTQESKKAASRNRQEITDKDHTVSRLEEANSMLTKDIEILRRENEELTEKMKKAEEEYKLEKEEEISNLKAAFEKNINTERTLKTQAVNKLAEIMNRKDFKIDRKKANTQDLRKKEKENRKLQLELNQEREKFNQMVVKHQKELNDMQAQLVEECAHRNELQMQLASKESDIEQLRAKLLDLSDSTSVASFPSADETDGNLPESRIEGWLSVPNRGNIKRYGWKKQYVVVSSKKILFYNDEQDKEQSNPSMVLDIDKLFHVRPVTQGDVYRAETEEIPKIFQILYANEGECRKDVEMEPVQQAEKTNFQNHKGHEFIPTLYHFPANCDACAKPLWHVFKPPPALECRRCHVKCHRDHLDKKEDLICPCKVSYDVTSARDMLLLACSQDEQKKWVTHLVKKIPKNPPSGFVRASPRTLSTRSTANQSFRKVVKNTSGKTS

In the case of `Cn1nc(C(F)(F)F)cc1-c1cnc(N2CCc3cc(S(=O)(=O)Nc4c(F)cc(Cl)cc4F)cc(N4CCCC4=O)c32)nc1` [TP-020], the IC50 (Mogat2 (Mus musculus)) was 0.0024 µM (active), the residual activity [1] was 89% and the inhibition [2] was -9.1%. For the same compound, the residual activity [3] was 100%, the inhibition [4] was 7.26% and the inhibition [5] was 6.67%. For the same compound, the IC50 [6] was > 30 µM (not active), the residual activity [7] was 78% and the residual activity [8] was 100%. For the same compound, the residual activity [9] was 95%, the IC50 [10] was 0.0078 µM (active) and the residual activity [11] was 100%. For the same compound, the inhibition [12] was 31%, the inhibition [13] was 17.9% and the IC50 [14] was > 30 µM (not active). For the same compound, the residual activity [15] was 95%, the pKi ([16]; read-out: Ki) was 5.33 and the Ki ([16]; read-out: pKi (converted)) was 4.57 µM. It also gave a pKi [17] of 5.00, an inhibition [18] of 12.8% and an inhibition [19] of 6.96%.

For `Nc1cnc(N2CCc3cc(S(=O)(=O)Nc4c(F)cc(Cl)cc4F)cc(N4CCCC4=O)c32)nc1`, the inhibition [20] was 8.84%, the residual activity [1] was 96% and the residual activity [3] was 100%. It also gave an inhibition [21] of -9.48%, an inhibition [22] of -2.69% and a residual activity [7] of 80%. For the same compound, the residual activity [8] was 91%, the residual activity [9] was 88% and the inhibition [23] was 4.45%. The inhibition [24] was 3.7%, the residual activity [11] was 92% and the residual activity [15] was 84%.
